From PMC4861708 (Frontiers in Cell and Developmental Biology, 2016)
In brackets after ≈: the same amount, converted by molar mass. Where a SMILES comes first, the peptide text is derived from it. [ ]: non-standard residue; d: D form. The star is where a group is joined. Orn(α-tetramethylguanidino) = CN(C)C(=N[C@@H](CCCN)C(=O)*)N(C)C; Orn = NCCC[C@H](N)C(=O)O

Columns and labels:
[1] = tested on: K. pneumoniae DSM 681 (ATCC 10031); format: cell-based, Klebsiella pneumoniae; conditions: DSM 681, 24 h
Description: (§1) MICs of P. aeruginosa strains DSM 1117 (ATCC 27853), DSM 3227 (ATCC 19429), and DSM 9644 were determined in a microdilution broth assay using 50 or 100% MHB (11.5 and 23 g/L MHB, respectively) whereas MICs of E. coli DSM 1103 (ATCC 25922) and K. pneumoniae DSM 681 (ATCC 10031) were determined in TSB (30 g/L TSB). Peptides (1 g/L in water) were serially two-fold diluted in a 96-well microtiter plate (PS, sterile, flat bottom) in 50 μL of the corresponding medium to final concentrations of 512–4 μg/mL. Bacteria were grown in nutrient broth overnight and diluted to a cell concentration of 1.5 × 10^7 cells/mL in the corresponding medium. Cell densities were determined by using the McFarland standard as reference. An aliquot (50 μL) of the cell culture was added to each well and incubated (37°C, 24 h). The OD595 was determined in a SpectraMax 340PC (Molecular Devices, Sunnyvale, USA). Additionally, MIC values were also determined for high bacteria densities (5 × 10^8 cells/mL) corresponding to the conditions used for TEM, as described above.

[2] = tested on: E. coli DSM 1103 (ATCC 25922); format: cell-based, Escherichia coli; conditions: DSM 1103, 24 h
Description: as §1

[3] = tested on: P. aeruginosa DSM 1117 (ATCC 27853); format: cell-based, Pseudomonas aeruginosa; conditions: DSM 1117, 24 h
Description: as §1

P. aeruginosa elastase = molecular target: T1, P. aeruginosa elastase (Pseudomonas aeruginosa, UniProt P14756); experiment: Elastase assay (proteolytic stability); format: in vitro ADME; conditions: Pseudomonas aeruginosa, isolated enzyme elastase; after 6 h, elastase 12 units/mL, pH 8.3, 37°C; read-out: Peptide remaining with elastase
T1 construct: purchased Merck (Darmstadt, Germany)
T1 sequence (P14756 198-498): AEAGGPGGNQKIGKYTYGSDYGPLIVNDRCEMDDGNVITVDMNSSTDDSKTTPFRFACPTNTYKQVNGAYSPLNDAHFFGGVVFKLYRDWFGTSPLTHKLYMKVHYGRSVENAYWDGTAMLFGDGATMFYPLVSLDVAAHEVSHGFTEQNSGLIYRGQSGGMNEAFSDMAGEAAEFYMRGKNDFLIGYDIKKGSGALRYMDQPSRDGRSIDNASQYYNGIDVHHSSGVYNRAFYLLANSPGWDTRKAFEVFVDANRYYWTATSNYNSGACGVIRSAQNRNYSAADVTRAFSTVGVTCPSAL
Description: A stock solution of P. aeruginosa elastase (0.26 U/μL) was prepared in Tris-HCl (5 mmol/L, pH 8.3) and stored at −80°C. Peptides (0.5 g/L in 5 mmol/L Tris-HCl, pH 8.3) were incubated with elastase (0.012 U/μL) at 37°C under constant shaking (450 rpm) for 0, 0.5, 2, 4, and 6 h. Aliquots (10.5 μL) were precipitated with a mixture of acetonitrile and ethanol (1:1 v/v) containing 0.1% TFA (21 μL), centrifuged, the supernatant transferred into a new tube, and dried in vacuum. Samples were dissolved in aqueous acetonitrile (3% v/v) containing TFA (0.1% v/v) and analyzed by RP-HPLC using the conditions described above.

P. aeruginosa DSM 1117 = experiment: Transmission electron microscopy, morphological changes; format: cell-based, Pseudomonas aeruginosa; conditions: 1 h
Description: Peptide-bacteria mixtures were fixed (2% glutaraldehyde, 5 mmol/L CaCl2, 10 mmol/L MgCl2 in 0.1 mol/L sodium cacodylate buffer, pH 7.4) overnight at 4°C. […] Samples were rinsed with distilled water (5 × 10 min), incubated with aqueous uranylacetate (0.5% w/v) for 1 h at 4°C, washed with distilled water (3 × 10 min), and embedded in Epon. The hardened blocks were sectioned (50 nm) on a UCT ultramicrotome (Leica, Vienna, Austria), stained with uranyl acetate and lead citrate on an AC20 system (Leica), and visualized at a Tecnai 12 electron microscope (FEI, Eindhoven, The Netherlands) at 80 kV. Morphological effects were quantified on average for 25 cells per condition.

SMILES: CC(C)C[C@H](NC(=O)[C@H](CCCNC(=N)N)NC(=O)[C@@H]1CCCN1C(=O)[C@H](Cc1c[nH]cn1)NC(=O)[C@@H]1CCCN1C(=O)[C@@H]1CCCN1C(=O)[C@H](CCCNC(=N)N)NC(=O)[C@@H]1CCCN1C(=O)[C@H](CCCNC(=N)N)NC(=O)[C@@H]1CCCN1C(=O)[C@H](CCCN)NC(=O)[C@H](Cc1ccc(O)cc1)NC(=O)[C@@H](NC(=O)[C@@H]1CCCN1C(=O)[C@H](CCCNC(=N)N)NC(=O)[C@H](CCCN)NC(=O)[C@H](Cc1c[nH]c2ccccc12)NC(=O)[C@H](CCCN)NC(=O)[C@H](Cc1c[nH]c2ccccc12)NC(=O)[C@H](CCCN)NC(=O)[C@H](Cc1c[nH]c2ccccc12)NC(=O)[C@H](CCCN)N=C(N(C)C)N(C)C)C(C)C)C(=O)O [Api794, gu-O(WO)3RPVYOPRPRPPHPRL-OH] ({Orn(α-tetramethylguanidino)}-W[Orn]W[Orn]W[Orn]RPVY[Orn]PRPRPPHPRL-OH)
- MIC K. pneumoniae DSM 681 [1]: 32 µg/mL (≈ 10.8 µM)
- MIC E. coli ATCC 25922 [2]: 16 µg/mL (≈ 5.4 µM)
- MIC E. coli DSM 1103, high inoculum [2]: 64 µg/mL (≈ 21.6 µM)
- MIC P. aeruginosa DSM 1117, high inoculum [3]: 64 µg/mL (≈ 21.6 µM)
- remaining at 6 h, 0.5 g/L (P. aeruginosa elastase): 79 ± 6%
- Cells spongy (P. aeruginosa DSM 1117; 16 µg/mL): 0%
- DNA/ribosomes relocalization: +++, extremely relocalized (P. aeruginosa DSM 1117; 16 µg/mL): 0%
- DNA/ribosomes relocalization: ++, relocalized (P. aeruginosa DSM 1117; 16 µg/mL): 23%
- DNA/ribosomes relocalization: +, starting (P. aeruginosa DSM 1117; 16 µg/mL): 37%
- DNA/ribosomes relocalization: -, no (P. aeruginosa DSM 1117; 16 µg/mL): 40%
- Membrane: b, broken (P. aeruginosa DSM 1117; 16 µg/mL): 0%
- Membrane: i, intact (P. aeruginosa DSM 1117; 16 µg/mL): 100%
- Membrane: r, ruptured (P. aeruginosa DSM 1117; 16 µg/mL): 0%
- Ribosome clustering: +++, extremely clustered (P. aeruginosa DSM 1117; 16 µg/mL): 0%
- Ribosome clustering: ++, clustered (P. aeruginosa DSM 1117; 16 µg/mL): 0%
- Ribosome clustering: +, starting (P. aeruginosa DSM 1117; 16 µg/mL): 80%
- Ribosome clustering: -, no (P. aeruginosa DSM 1117; 16 µg/mL): 20%
- Vesicle release (P. aeruginosa DSM 1117; 16 µg/mL): 87%
- dissociated Fragments: +, small and thin (P. aeruginosa DSM 1117; 16 µg/mL): 10%
- dissociated Fragments: -, no (P. aeruginosa DSM 1117; 16 µg/mL): 77%
- dissociated Fragments: LV, large vesicles (P. aeruginosa DSM 1117; 16 µg/mL): 0%
- Cells spongy (P. aeruginosa DSM 1117; 64 µg/mL): 0%
- DNA/ribosomes relocalization: +++, extremely relocalized (P. aeruginosa DSM 1117; 64 µg/mL): 83%
- DNA/ribosomes relocalization: ++, relocalized (P. aeruginosa DSM 1117; 64 µg/mL): 10%
- DNA/ribosomes relocalization: +, starting (P. aeruginosa DSM 1117; 64 µg/mL): 3%
- DNA/ribosomes relocalization: -, no (P. aeruginosa DSM 1117; 64 µg/mL): 3%
- Membrane: b, broken (P. aeruginosa DSM 1117; 64 µg/mL): 80%
- Membrane: i, intact (P. aeruginosa DSM 1117; 64 µg/mL): 20%
- Membrane: r, ruptured (P. aeruginosa DSM 1117; 64 µg/mL): 47%
- Ribosome clustering: +++, extremely clustered (P. aeruginosa DSM 1117; 64 µg/mL): 73%
- Ribosome clustering: ++, clustered (P. aeruginosa DSM 1117; 64 µg/mL): 10%
- Ribosome clustering: -, no (P. aeruginosa DSM 1117; 64 µg/mL): 3%
- Vesicle release (P. aeruginosa DSM 1117; 64 µg/mL): 20%
- dissociated Fragments: ++, long and thin (P. aeruginosa DSM 1117; 64 µg/mL): 63%
- dissociated Fragments: +, small and thin (P. aeruginosa DSM 1117; 64 µg/mL): 20%
- dissociated Fragments: LV, large vesicles (P. aeruginosa DSM 1117; 64 µg/mL): 30%
- Cells spongy (P. aeruginosa DSM 1117; 256 µg/mL): 80%
- DNA/ribosomes relocalization: +++, extremely relocalized (P. aeruginosa DSM 1117; 256 µg/mL): 100%
- DNA/ribosomes relocalization: ++, relocalized (P. aeruginosa DSM 1117; 256 µg/mL): 0%
- DNA/ribosomes relocalization: +, starting (P. aeruginosa DSM 1117; 256 µg/mL): 0%
- DNA/ribosomes relocalization: -, no (P. aeruginosa DSM 1117; 256 µg/mL): 0%
- Membrane: b, broken (P. aeruginosa DSM 1117; 256 µg/mL): 67%
- Membrane: i, intact (P. aeruginosa DSM 1117; 256 µg/mL): 34%
- Membrane: r, ruptured (P. aeruginosa DSM 1117; 256 µg/mL): 67%
- Ribosome clustering: +++, extremely clustered (P. aeruginosa DSM 1117; 256 µg/mL): 100%
- Ribosome clustering: ++, clustered (P. aeruginosa DSM 1117; 256 µg/mL): 0%
- Ribosome clustering: +, starting (P. aeruginosa DSM 1117; 256 µg/mL): 0%
- Ribosome clustering: -, no (P. aeruginosa DSM 1117; 256 µg/mL): 0%
- Vesicle release (P. aeruginosa DSM 1117; 256 µg/mL): 3%
- dissociated Fragments: ++, long and thin (P. aeruginosa DSM 1117; 256 µg/mL): 80%
- dissociated Fragments: -, no (P. aeruginosa DSM 1117; 256 µg/mL): 7%
- dissociated Fragments: LV, large vesicles (P. aeruginosa DSM 1117; 256 µg/mL): 93%
- Cells spongy (P. aeruginosa DSM 1117; 512 µg/mL): 87%
- DNA/ribosomes relocalization: +++, extremely relocalized (P. aeruginosa DSM 1117; 512 µg/mL): 100%
- DNA/ribosomes relocalization: ++, relocalized (P. aeruginosa DSM 1117; 512 µg/mL): 0%
- DNA/ribosomes relocalization: +, starting (P. aeruginosa DSM 1117; 512 µg/mL): 0%
- DNA/ribosomes relocalization: -, no (P. aeruginosa DSM 1117; 512 µg/mL): 0%
- Ribosome clustering: +++, extremely clustered (P. aeruginosa DSM 1117; 512 µg/mL): 93%
- Ribosome clustering: ++, clustered (P. aeruginosa DSM 1117; 512 µg/mL): 7%
- Ribosome clustering: +, starting (P. aeruginosa DSM 1117; 512 µg/mL): 0%
- Ribosome clustering: -, no (P. aeruginosa DSM 1117; 512 µg/mL): 0%
- Vesicle release (P. aeruginosa DSM 1117; 512 µg/mL): 0%
- dissociated Fragments: ++, long and thin (P. aeruginosa DSM 1117; 512 µg/mL): 60%
- dissociated Fragments: +, small and thin (P. aeruginosa DSM 1117; 512 µg/mL): 0%
- dissociated Fragments: -, no (P. aeruginosa DSM 1117; 512 µg/mL): 40%
- dissociated Fragments: LV, large vesicles (P. aeruginosa DSM 1117; 512 µg/mL): 97%
